These results are taken from publication PMC8476055, “Synthesis and Biological Activity of Triterpene–Coumarin Conjugates” (Journal of Natural Products, 2021).

Assay [1] concerns HT29 human colon adenocarcinoma cells. Kind of assay: MTT cell proliferation assay, HT29 cells. The settings on record: HT-29, 72 h treatment, untreated control = 100% viability, read-out: IC50, growth inhibition of HT29 cells. In kind it is cell-based. The protocol:
These studies were performed using a 3-(4,5-dimethylthiazol-2-yl)-2,5-diphenyltetrazolium bromide (MTT) assay, with increasing concentration levels of each compound (0–200 μg/mL). Cell viability was determined after treatment for 72 h, by absorption of a formazan dye.
[…] ATTC HTB-38), Hep G2 human hepatocyte carcinoma cells (ECACC 85011430), nontumor human epithelial lung fibroblast cells HPF (ScienCell catalog (cat.) no. 3300), nontumor rat ileum cells IEC-18 (ECACC no. 88011801), and nontumor human embryo liver cells (ECACC 89121403) were cultured in DMEM medium supplemented with 2 mM glutamine, 10% heat-inactivated fetal bovine serum (FCS), 10.000 units/mL penicillin, and […]. These cells were incubated at 37 °C in an atmosphere of 5% CO2 and 95% humidity. The culture media were changed every 48 h, and the confluent cultures were separated with a trypsin solution (0.25% EDTA). Subconfluent monolayer cells were used in all experiments. All cell lines used were provided by the cell bank of the University of Granada (Spain).
The effect of the synthesized compounds on the viability of tumor cells was assessed using an MTT assay, based on the ability of living cells to cleave the tetrazolium ring, thus producing formazan, which absorbs at 570 nm. […] For an evaluation of the cytotoxic effects of these compounds, the cells were seeded in 96-well plates at an initial density of 5 × 10^3 B16–F10 cells, 6 × 10^3 HT29 cells, 15 × 10^3 Hep G2 cells, 8 × 10^3 HPF cells, 15 × 10^3 IEC-18 cells, and 11 × 10^3 WRL68 cells, per well. After incubation for 24 h, the cells were treated with the synthesized compounds in triplicate, at different concentrations (0–200 μg/mL), and incubated for 72 h. Thereafter, 100 μL of MTT solution (0.5 mg/mL) were added to each well. After 2 h of incubation, the cells were washed twice with phosphate buffered saline (PBS), and the formazan was resuspended in 100 μL of DMSO. Relative cell viability, with respect to untreated control cells, was measured by absorbance at 550 nm on an ELISA plate reader (Tecan Sunrise MR20-301, TECAN, Austria). […] These experiments were measured and compared to the control after 72 h of treatment.
For orientation: Tetrazolium assays rely on reduction of a dye to a coloured formazan, in cell work by metabolically active cells.

For assay [2], the system named is HT29 cells. Kind of assay: Cell-cycle distribution by PI flow cytometry, HT29. The assay is classed as cell-based, human. The settings on record: HT29, 72 h at IC50 concentration. As for the experimental part: (§1) Based on the cytotoxicity shown by derivatives 1, 4, 7, and 10, a study was made concerning their effects on the distribution of the cell cycle in order to determine possible cytostatic effects caused by the cytotoxic response. The percentages of cells in the different phases of the cycle were analyzed at 72 h, by the incorporation of propidium iodide. […] The values of cell percentage were expressed as means ± SEM of at least two independent experiments performed in triplicate. Flow cytometry was also used to measure DNA ploidy and alterations in cell-cycle profiles. The DNA content is proportional to the fluorescence of propidium iodide, enabling the percentage of cells to be determined in each phase of the cycle and the cell subpopulations with different DNA contents to be visualized.
(§2) The method used to quantify the amount of DNA in the different phases of the cell cycle (G0/G1, S, and G2/M) was performed by flow cytometry, using a fluorescence-activated cell sorter (FACS) at 488 nm in an Epics XL flow cytometer (Coulter Corporation, Hialeah, FL, USA). For this assay, 5 × 10^4 B16–F10, 6 × 10^4 HT29 cells, and 15 × 10^4 Hep G2 cells were placed in 24-well plates with 1.5 mL of medium and incubated for 24 h. After this time, the cells were treated with the different selected compounds for 72 h at their corresponding IC50 concentrations. After treatment, the cells were washed twice with PBS, trypsinized, and resuspended in 1X TBS (10 mM Tris and 150 mM NaCl); thereafter, Vindelov buffer (100 mM Tris, 100 mM NaCl, 10 mg/mL Rnase, and 1 mg/mL PI, at pH 8) was added. Cells were stored on ice and, just before measurement, were stained with 10 μL of 1 mg/mL PI solution. Approximately, 10 × 10^3 cells were analyzed in each experiment. The experiments were performed three times with two replicates per assay.
(A flow cytometer gives signals particle by particle.)

Assay [3] deals with Hep G2 cells. Briefly: Cell-cycle distribution by PI flow cytometry, Hep G2. In kind it is cell-based, human. The settings on record: Hep G2, 72 h at IC50 concentration. As for the experimental part:
as §1, §2

Assay [4] has as its system B16–F10 cells. Kind of assay: Mitochondrial-membrane potential (Rh123) flow cytometry, B16–F10. In kind it is cell-based, murine. The settings on record: B16–F10, 72 h at IC50 concentration. The protocol:
(§3) The study of the loss of the mitochondrial-membrane potential (MMP) of tumor cells, when treated with drugs, can provide information on the activation mechanism of apoptosis. This activation can occur extrinsically when MMP is not altered, and intrinsically when a loss of this potential is caused by mitochondrial disruption. […] The values of percentage of cell population were expressed as means ± SEM of at least two experiments in duplicate. Changes in MMP were analyzed by monitoring cell fluorescence after staining with rhodamine 123 (Rh123).
(§4) The electrochemical gradient across the mitochondrial membrane was examined by analytical flow cytometry, using dihydrorhodamine (DHR), which in contact with living cells, oxidized to form highly fluorescent rhodamine 123 (Rh123). The fluorescence emitted can be monitored by fluorescence spectroscopy using excitation and emission wavelengths of 500 and 536 nm, respectively. […] Following treatment, the culture medium was renewed with fresh medium by adding 0.5 mL of DHR, for a final concentration of […]. Cells were incubated for 1 h at 37 °C in an atmosphere of 5% CO2 and 95% humidity and subsequently washed and resuspended in PBS. The fluorescence intensity was measured using a FACScan flow cytometer (fluorescence-activated cell sorter). The experiments were performed three times with two replicates per assay.

For assay [5], the system named is HT29 cells. Kind of assay: Mitochondrial-membrane potential (Rh123) flow cytometry, HT29. In kind it is cell-based, human. The settings on record: HT29, 72 h at IC50 concentration. As for the experimental part: as §3, §4

Structures are written as SMILES.

On to `CC1(C)CC[C@]2(C(=O)NCCCNC(=O)/C=C/c3ccc(O)cc3)CC[C@]3(C)C(=CC[C@@H]4[C@@]5(C)C[C@@H](O)[C@H](O)C(C)(C)[C@@H]5CC[C@]43C)[C@@H]2C1` [Compound 7, 2α,3β-Dihydroxy-N-(3′-((E)-3″-(4‴-hydroxyphenyl)acrylamido)propyl)olean-12-en-28-amide], for which the IC50 in assay [1] was 10.9 ± 0.5 µM. In addition, the “percentage of cells in the G0/G1 phase” value in assay [2] and in assay [3] was “greater than 70%” in each case. The “Rh123 staining (mitochondrial-membrane potential)” value (“Rh123 staining” for short) in assay [4] and in assay [5] was “positive Rh123 staining” in each case.

For the compound `CC1(C)CC[C@]2(C(=O)NCCCNC(=O)c3cc4ccccc4oc3=O)CC[C@]3(C)C(=CC[C@@H]4[C@@]5(C)C[C@@H](O)[C@H](O)C(C)(C)[C@@H]5CC[C@]43C)[C@@H]2C1` [Compound 1, 2α,3β-Dihydroxy-N-(3′-(2″-oxo-2″H-chromene-3″-carboxamido)propyl)olean-12-en-28-amide], in assay [1], the IC50 is over 10 µM. Besides, in assay [3], the “percentage of cells in the G0/G1 phase” value is “greater than 70%”. In addition, the “Rh123 staining” value in assay [4] and in assay [5] was “positive Rh123 staining” throughout.

In the case of `CC1(C)CC[C@]2(C(=O)O)CC[C@]3(C)C(=CC[C@@H]4[C@@]5(C)C[C@@H](OC(=O)c6cc7ccccc7oc6=O)[C@H](OC(=O)c6cc7ccccc7oc6=O)C(C)(C)[C@@H]5CC[C@]43C)[C@@H]2C1` [Compound 10], the IC50 in assay [1] came to 1.1 ± 0.1 µM. Also, the “percentage of cells in the G0/G1 phase” value in assay [2] and in assay [3] was “greater than 70%” throughout. The “Rh123 staining” value in assay [4] and in assay [5] was “positive Rh123 staining” each time.

With `CC1(C)CC[C@]2(C(=O)NCCCNC(=O)Cc3cc(=O)oc4cc(O)ccc34)CC[C@]3(C)C(=CC[C@@H]4[C@@]5(C)C[C@@H](O)[C@H](O)C(C)(C)[C@@H]5CC[C@]43C)[C@@H]2C1` [Compound 4, 2α,3β-Dihydroxy-N-(3′-(2″-(7‴-hydroxy-2‴-oxo-2‴H-chromen-4‴-yl)acetamido)propyl)olean-12-en-28-amide], the IC50 in assay [1] was over 10 µM. The “percentage of cells in the G0/G1 phase” value in assay [2] and in assay [3] was “greater than 70%” in each case. Moreover, the “Rh123 staining” value in assay [4] and in assay [5] was “positive Rh123 staining” each time.

In general, IC50 refers to the concentration that gives 50% inhibition.
